Experimental data published in patent US11730810B2, “Composition comprising an antigen and a substituted imidazo[1,2-a]pyrimidine for enhancing human immune response” (Children's Medical Center Corporation, priority 2017, dated 2023).

Columns and labels:
[1] = test system: primary human blood mononuclear cells (PBMC); assay: TNF AlphaLISA screen on primary human PBMCs; assay type: cell-based; settings: hit = robust Z score >2 in both duplicates and in at least 2 of 3 donors
Experimental: To identify immunomodulators/adjuvants that robustly activate human immune cells, ˜200,000 small molecules were tested against THP1 NF-κB reporter cells in a screen. As there is evidence that cell culture lines such as THP-1 cells may not model responses of natural primary human leukocytes, smaller-scale novel high throughput screening methodology was also employed, in which 9,000 commercially available compounds (focusing on small molecule library plates that had relatively high # of hits form the THP-1 screen) were screened using primary human blood mononuclear cells (PBMC) from three different adult human donors (TNFαLISA Assay) (FIGS. 1A-1C).
TNF AlphaLISA screen was comprised of three parts: 1) human peripheral blood collection and PBMC isolation—human adult peripheral blood was collected with written consent. PBMCs were isolated from the blood using Ficoll density gradient. […]
Based on antibody-coated fluorometric excitation/emission beads, the Alpha technology (PerkinElmer) enables the detection and screening of target molecules, in this case TNFα, in a no-wash, highly sensitive, quantitative assay compatible with high throughput screening.
TNFαLISA Assay. […] Viability was assessed by trypan blue staining and cells were then resuspended to 6.67×10^5 viable cells/mL in DMEM with 10% autologous plasma. […]

[2] = test system: THP1-Lucia cells; assay: NF-kB-induced Luminescence Assay in THP1-Lucia cells; assay type: cell-based, human; settings: in comparison to positive control R848, N=4
Experimental: (FIG. 5A) Human adult PBMCs were stimulated for 18 hours with the positive control compound R848 or compound 037 and its analogs at 33 μM. Production human TNF was measured in cell-free supernatants by ELISA (N=5). […] Results are shown as the median, the 25th and 75th percentiles (boxes) and the 5th and 95th percentiles (whiskers). **p<0.01 determined by repeated measure one-way ANOVA with Dunnett's multiple comparison test on log-transformed data and comparing each compound with DMSO (control condition).
THP-1 Cell Line and Culture Conditions. The THP1-Lucia™ cell line was obtained from Invivogen (San Diego, Calif.). THP1-Lucia cells, which are human monocytic cells derived from the blood of a child with leukemia, contain an NF-kB-inducible Luc reporter construct. This allows NF-kB activation to be measured by quantifying the luminescence from the secreted luciferase enzyme. THP1-Lucia cells were cultured in RPMI 1640 supplemented with 10% non-heat inactivated fetal bovine serum (FBS), 10 mM HEPES, 1.0 mM sodium pyruvate, 50 ug/ml Pen-Strep, and 100 ug/mL Normocin™. Once cultured, the cells were stored in a 37° C. incubator with 5% CO2 and a humidified atmosphere. […]
NF-kB-induced Luminescence Assay. […] Immediately after adding the substrate, the luminescence was read using a PerkinElmer Envision plate reader.

[3] = test system: Human adult and elderly PBMCs; assay: Stimulation of adult and elderly PBMCs, TNF and IL-1β by ELISA; assay type: cell-based
Experimental: (FIG. 2A) Human adult (top) and elderly (bottom) PBMCs stimulated for 18 hours with the TLR7/8 agonist R848 and 24 confirmed hit compounds from TNF AlphaLISA screen. TNF (left panels) and IL-1β (right panels) were assessed in cell-free supernatants by ELISA. Data are shown as median and interquartile range of N=5.
(§1) ELISAs and Multiplex-Analyte Assays. Supernatants derived from human PBMCs and DC stimulations were assayed by ELISA for TNF (ThermoFisher Scientific; Waltham, Mass., USA). Cytokine and chemokine expression profiles (e.g., IFNγ, IL-10, IL-12 (p70), IL-1β, IL-6, IL-8, MIP-1α/CCL3, TNF and GM-CSF) in cell culture supernatants were measured using a customized 9-plex Milliplex® Human Th17 Magnetic Bead Panel according to the manufacturer's instructions (Millipore, Chicago, Ill., USA). Assays were read and analyzed on the Luminex® 100/200™ System and xPOTENT® software (Luminex, Austin, Tex.). A minimum threshold was set at the minimum detectable concentration for each individual assay, defined as three standard deviations above the mean background.
In vitro PBMC stimulation. PBMCs were isolated from blood using a Ficoll density gradient. PBMCs either used fresh or stored at 5×10^7 cells per vial in 1 mL RPMI containing 20% autologous plasma and 10% DMSO at −80° C. until use. […]

[4] = test system: human adult PBMCs; assay: 9-plex multiplex cytokine assay after stimulation of adult PBMCs; assay type: cell-based; settings: 0.1 μM-33 μM, 18 hours, 10% autologous plasma, N=4; compared with R848
Experimental: Shown is a 9-plex multiplex cytokine assay after stimulation of adult peripheral blood mononuclear cells (PBMCs) with compound 037 or R848 at four different concentrations (0.1 μM-33 μM). Radar plots of immune polarizing cytokine production from human adult PBMCs stimulated for 18 hours in 10% autologous plasma, represented as fold-change over RPMI unstimulated control (N=4).
as §1

[5] = test system: mouse splenocytes; assay: Splenocyte in vitro stimulation, murine IL-6 by ELISA; assay type: cell-based, C57BL/6 mice; settings: 33 μM, 18 hours
[6] = test system: human adult PBMCs; assay: In vitro PBMC stimulation, TNF production by ELISA (Table 1); assay type: cell-based; settings: 18 hours
Experimental: (§2) Human adult PBMCs were stimulated for 18 hours with compound 037 and its analogs at 33 μM. Production of human TNF was assessed in cell-free supernatants by ELISA. Results are shown as the median, the 25th and 75th percentiles (boxes) and the 5th and 95th percentiles (whiskers) and expressed as percentage TNF production (TNF %) as compared to R848 (FIG. 6A) or TNF concentration in ng/ml (FIG. 6B) (N=3-5). **p<0.01 determined by repeated measure one-way ANOVA with Dunnett's multiple comparison test on log-transformed data and comparing each compound with DMSO (control condition).
as §2, with “7A)” for “6A)”, “7B) (N=5). Analogs are ranked left to right by TNF % (compound 037 on the far left). Compound 037 analogs have been classified in the following categories according to TNF %: high activity—class A: TNF %>15%; medium activity—class B: 1%<TNF %≤15%; low activity—class C: TNF %≤1%.” for “6B) (N=3-5).”
Table 1 provides the activity of exemplary compounds on stimulating TNF production in PBMCs as compared to the benchmark compound R848. Specifically, TNF production was measured by ELISA after stimulation of adult PBMCs with compound 037 analog family or the compound R848 at 33 μM for 18 hours. […]
ELISAs and Multiplex-Analyte Assays. […] Cytokine and chemokine expression profiles (e.g., IFNγ, IL-10, IL-12 (p70), IL-1β, IL-6, IL-8, MIP-1α/CCL3, TNF and GM-CSF) in cell culture supernatants were measured using a customized 9-plex Milliplex® Human Th17 Magnetic Bead Panel according to the manufacturer's instructions (Millipore, Chicago, Ill., USA). […]

CCC(C(=O)Nc1cc(-c2cn3cccnc3n2)ccc1C)c1ccccc1 (stereo not drawn) [Compound 37]
hit in PBMC TNFαLISA screen [1]: identified | NF-κB-driven expression of luciferase [2]: little activity | induction of TNF and IL-1β ([3]; adult and elderly PBMCs stimulated for 18 hours, N=5): induce TNF and IL-1β | potency rank as inducer of innate immune cytokines among 24 confirmed hits ([3]; adult and elderly PBMCs, 18 hours): most potent inducers of innate immune cytokines | cytokine response (9-plex), fold-change over RPMI unstimulated control [4]: broad concentration-dependent cytokine response

Cc1cnc2nc(-c3ccc(C)c(NC(=O)c4ccccc4C(F)(F)F)c3)cn2c1 [FRF-02-144-3, N-(2-Methyl-5-(6-methylimidazo[1,2-a]pyrimidin-2-yl)phenyl)-2-(trifluoromethyl)benzamide]
activation of mouse splenocytes (murine IL-6) and human PBMCs (TNF) [5]: activates both human PBMCs and mouse splenocytes

Cc1ccc(-c2cn3cc(F)cnc3n2)cc1NC(=O)C(c1ccccc1)C(C)C (stereo not drawn) [FRF-03-082, N-(5-(6-Fluoroimidazo[1,2-a]pyrimidin-2-yl)-2-methylphenyl)-3-methyl-2-phenylbutanamide]
TNF (Median) ([6]; 33 μM, ELISA, median of N=3-5, no unit in table (FIGS. 6B/7B express TNF concentration in ng/ml)): 1.008 | Activity class ([6]; classified according to TNF % vs R848, 33 μM): A (high activity—class A: TNF % >15%) | TNF % (Median) ([6]; median percentage TNF production as compared to R848, 33 μM): 41.65%
